From US11339447B2, “System and method for determining Kareniticin sensitivity on cancer” (CROWN BIOSCIENCE, INC. (TAICANG), priority 2017, dated 2022)

How the values were obtained:
[1] = system: PDX CR1451; assay: karenitecin treatment of PDX model; format: in vivo; parameters: key to Response: responder: responded to karenitecin treatment (AUC<0.5 and TGI>0.8); non_responder: did not respond to karenitecin treatment (AUC>0.5 and TGI<0.6); conditions: karenitecin treatment for two weeks
Experimental: (§1) A cohort of 48 PDX models in 8 cancers were used in this study. Those models were subject to karenitecin treatment for two weeks. Both tumor growth inhibition (TGI) and median AUC (area under curve) ratio, a newly developed metric to evaluate drug efficacy, were calculated (Table 1). Those models can be divided into two categories according to TGI and median AUC ratio.

[2] = system: PDX CR2545; assay: karenitecin treatment of PDX model; format: in vivo; parameters: key to Response: responder: responded to karenitecin treatment (AUC<0.5 and TGI>0.8); non_responder: did not respond to karenitecin treatment (AUC>0.5 and TGI<0.6); conditions: karenitecin treatment for two weeks
Experimental: as §1

[3] = system: PDX CR3079; assay: karenitecin treatment of PDX model; format: in vivo; parameters: key to Response: responder: responded to karenitecin treatment (AUC<0.5 and TGI>0.8); non_responder: did not respond to karenitecin treatment (AUC>0.5 and TGI<0.6); conditions: karenitecin treatment for two weeks
Experimental: as §1

[4] = system: PDX CR3085; assay: karenitecin treatment of PDX model; format: in vivo; parameters: key to Response: responder: responded to karenitecin treatment (AUC<0.5 and TGI>0.8); non_responder: did not respond to karenitecin treatment (AUC>0.5 and TGI<0.6); conditions: karenitecin treatment for two weeks
Experimental: as §1

[5] = system: PDX ES0212; assay: karenitecin treatment of PDX model; format: in vivo; parameters: key to Response: responder: responded to karenitecin treatment (AUC<0.5 and TGI>0.8); non_responder: did not respond to karenitecin treatment (AUC>0.5 and TGI<0.6); conditions: karenitecin treatment for two weeks
Experimental: as §1

[6] = system: PDX ES2267; assay: karenitecin treatment of PDX model; format: in vivo; parameters: key to Response: responder: responded to karenitecin treatment (AUC<0.5 and TGI>0.8); non_responder: did not respond to karenitecin treatment (AUC>0.5 and TGI<0.6); conditions: karenitecin treatment for two weeks
Experimental: as §1

[7] = system: PDX GA0087; assay: karenitecin treatment of PDX model; format: in vivo; parameters: key to Response: responder: responded to karenitecin treatment (AUC<0.5 and TGI>0.8); non_responder: did not respond to karenitecin treatment (AUC>0.5 and TGI<0.6); conditions: karenitecin treatment for two weeks
Experimental: as §1

[8] = system: PDX LU0330; assay: karenitecin treatment of PDX model; format: in vivo; parameters: key to Response: responder: responded to karenitecin treatment (AUC<0.5 and TGI>0.8); non_responder: did not respond to karenitecin treatment (AUC>0.5 and TGI<0.6); conditions: karenitecin treatment for two weeks
Experimental: as §1

[9] = system: PDX LU0884; assay: karenitecin treatment of PDX model; format: in vivo; parameters: key to Response: responder: responded to karenitecin treatment (AUC<0.5 and TGI>0.8); non_responder: did not respond to karenitecin treatment (AUC>0.5 and TGI<0.6); conditions: karenitecin treatment for two weeks
Experimental: as §1

[10] = system: PDX LU1144; assay: karenitecin treatment of PDX model; format: in vivo; parameters: key to Response: responder: responded to karenitecin treatment (AUC<0.5 and TGI>0.8); non_responder: did not respond to karenitecin treatment (AUC>0.5 and TGI<0.6); conditions: karenitecin treatment for two weeks
Experimental: as §1

[11] = system: PDX LU1155; assay: karenitecin treatment of PDX model; format: in vivo; parameters: key to Response: responder: responded to karenitecin treatment (AUC<0.5 and TGI>0.8); non_responder: did not respond to karenitecin treatment (AUC>0.5 and TGI<0.6); conditions: karenitecin treatment for two weeks
Experimental: as §1

[12] = system: PDX LU1901; assay: karenitecin treatment of PDX model; format: in vivo; parameters: key to Response: responder: responded to karenitecin treatment (AUC<0.5 and TGI>0.8); non_responder: did not respond to karenitecin treatment (AUC>0.5 and TGI<0.6); conditions: karenitecin treatment for two weeks
Experimental: as §1

[13] = system: PDX OV1658; assay: karenitecin treatment of PDX model; format: in vivo; parameters: key to Response: responder: responded to karenitecin treatment (AUC<0.5 and TGI>0.8); non_responder: did not respond to karenitecin treatment (AUC>0.5 and TGI<0.6); conditions: karenitecin treatment for two weeks
Experimental: as §1

[14] = prior studies, cited from earlier work

With `CC[C@@]1(O)C(=O)OCc2c1cc1n(c2=O)Cc2c-1nc1ccccc1c2CC[Si](C)(C)C` [karenitecin] as the compound, how does the “Median AUC ratio” value [1] read?
The value was 0.069.

And the Response [1]?
Its Response is “responder”.

What about the TGI [1] of the same compound?
Its TGI is 1.173.

And the “Median AUC ratio” value [2]?
Its value is 0.597.

And the Response [2]?
Its Response is “non_responder”.

What about the TGI [2] of the same compound?
The TGI was 0.379.

And the “Median AUC ratio” value [3]?
Its value is 0.706.

And the Response [3]?
Its Response is “non_responder”.

And the TGI [3]?
Its TGI is 0.381.

What about the “Median AUC ratio” value [4] of the same compound?
Its value is 0.019.

What about the Response [4] of the same compound?
The Response was “responder”.

What about the TGI [4] of the same compound?
The TGI was 1.051.

What about the “Median AUC ratio” value [5] of the same compound?
Its value is 0.061.

And the Response [5]?
Its Response is “responder”.

And the TGI [5]?
Its TGI is 1.017.

And the “Median AUC ratio” value [6]?
The value was −0.288.

What about the Response [6] of the same compound?
The Response was “responder”.

And the TGI [6]?
The TGI was 1.240.

And the “Median AUC ratio” value [7]?
Its value is −1.097.

What about the Response [7] of the same compound?
Its Response is “responder”.

What about the TGI [7] of the same compound?
The TGI was 1.316.

What about the “Median AUC ratio” value [8] of the same compound?
Its value is 1.094.

What about the Response [8] of the same compound?
Its Response is “non_responder”.

What about the TGI [8] of the same compound?
The TGI was 0.000.

And the “Median AUC ratio” value [9]?
Its value is 1.497.

What about the Response [9] of the same compound?
The Response was “non_responder”.

And the TGI [9]?
The TGI was −0.188.

And the “Median AUC ratio” value [10]?
The value was 1.056.

And the Response [10]?
The Response was “non_responder”.

What about the TGI [10] of the same compound?
Its TGI is 0.378.

And the “Median AUC ratio” value [11]?
The value was 0.406.

And the Response [11]?
Its Response is “responder”.

And the TGI [11]?
The TGI was 0.991.

What about the “Median AUC ratio” value [12] of the same compound?
Its value is −0.295.

And the Response [12]?
Its Response is “responder”.

What about the TGI [12] of the same compound?
The TGI was 1.077.

And the “Median AUC ratio” value [13]?
The value was 0.764.

And the Response [13]?
Its Response is “non_responder”.

And the TGI [13]?
Its TGI is 0.433.

What about the “incidence of severe diarrhea” value ([14]; compared with irinotecan) of the same compound?
The value was “lower”.

And the “incidence and severity of anemia, neutropenia and thrombocytopenia” value ([14]; compared with topotecan)?
Its value is “lower”.
